For one experiment, the target named is T1, human KDM4E (Homo sapiens, UniProt B2RXH2).
T1 sequence (B2RXH2 1-506): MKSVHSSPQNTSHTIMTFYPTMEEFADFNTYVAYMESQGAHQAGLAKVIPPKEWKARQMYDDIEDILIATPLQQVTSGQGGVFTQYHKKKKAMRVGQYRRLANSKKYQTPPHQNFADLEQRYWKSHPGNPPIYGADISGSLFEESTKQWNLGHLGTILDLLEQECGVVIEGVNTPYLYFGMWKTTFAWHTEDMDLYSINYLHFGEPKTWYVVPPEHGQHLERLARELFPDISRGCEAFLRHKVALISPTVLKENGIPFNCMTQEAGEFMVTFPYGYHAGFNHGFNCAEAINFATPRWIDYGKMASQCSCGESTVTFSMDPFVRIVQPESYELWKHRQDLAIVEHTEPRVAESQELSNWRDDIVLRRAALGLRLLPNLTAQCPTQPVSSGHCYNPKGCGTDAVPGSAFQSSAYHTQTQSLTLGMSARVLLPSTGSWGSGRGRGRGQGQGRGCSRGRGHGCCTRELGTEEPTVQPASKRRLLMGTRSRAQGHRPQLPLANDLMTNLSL
As to the kind of experiment: KDM4E SPE-MS turnover and kinetic assay (H3 K9(me3) peptide demethylation). The format is biochemical.

Another experiment concerns the target T2, human JMJD5 (Homo sapiens, UniProt Q8N371).
T2 construct: made in house; host or cells: Escherichia coli BL21(DE3)
Put plainly: SPE-MS JMJD5 turnover and kinetic assay (RPS6_128–148 hydroxylation). In kind it is biochemical. The following applies: for k app cat: calculated from vmax.

In a further experiment the test system is PHD2. On the set-up: method as in PMID 18952043. Conditions: PHD2 1.0 nM, cited from earlier work.
The subject of the next experiment is KDM4C. On the set-up: method as in PMID 21859681. Conditions: KDM4C 0.5 μM, ARTAQTARK(me3)STGGIA substrate; cited from earlier work.
The next experiment relates to JMJD5. Conditions: 10.0 μM JMJD5, 50 mM HEPES pH 7.5; read-out: Km JMJD5 (MALDI-TOF MS assay); cited from earlier work.
The test system of another experiment is human FIH. Conditions: FIH 0.15 μM, cited from earlier work.
Another experiment relates to human AspH. The following applies: AspH315–758 0.1 μM, hFX–CP101–119 substrate; cited from earlier work.
[1] abbreviates: 0.15 μM JMJD5, 50 mM MOPS pH 7.5, 20 °C, 100 μM LAA present.
Setting [2] is: 0.15 μM JMJD5, 50 mM MOPS pH 7.5, 20 °C, LAA present.

Where two headings read alike, the source gives them in different places.

T2 sequence (Q8N371 whole entry): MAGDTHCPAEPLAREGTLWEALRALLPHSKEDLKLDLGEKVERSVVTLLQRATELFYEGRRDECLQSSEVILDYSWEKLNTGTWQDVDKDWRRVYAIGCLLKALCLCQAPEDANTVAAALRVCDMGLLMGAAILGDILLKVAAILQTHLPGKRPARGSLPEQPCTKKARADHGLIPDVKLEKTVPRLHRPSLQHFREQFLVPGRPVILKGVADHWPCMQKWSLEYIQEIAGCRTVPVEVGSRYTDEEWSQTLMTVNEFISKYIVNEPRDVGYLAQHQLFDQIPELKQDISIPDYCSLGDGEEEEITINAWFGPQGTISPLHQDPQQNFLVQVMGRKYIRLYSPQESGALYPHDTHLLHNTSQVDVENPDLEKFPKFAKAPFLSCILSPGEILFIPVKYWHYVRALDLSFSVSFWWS

Consider `O=C(O)CCC(=O)C(=O)O` [2OG, 2-oxoglutarate, reference compound], for which the K app m on human KDM4E (0.15 μM KDM4E, ARTAQTARK(me3)STGGIA 10 μM) came out at 4.2 ± 1.1 µM; at human JMJD5 (setting [2]) it was 0.29 ± 0.04 µM. Besides, the v app max on human KDM4E (0.15 μM KDM4E, ARTAQTARK(me3)STGGIA 10.0 μM, 50 mM MES pH 7.0, 20 °C) was found to be 20.6 ± 1.3 nM/s; on human JMJD5 (setting [1]), 0.84 ± 0.03 nM/s. Further, at human KDM4E (absence of 2OG, KDM4E 0.15 μM, 2OG derivative 330 μM, Fe(II) 50 μM, ARTAQTARK(me3)STGGIA 10.0 μM), the “KDM4E (%): substrate demethylation with the compound as cosubstrate” value is listed as ~ 70%. For the same compound, the k app cat on human JMJD5 (setting [2]) is 0.0056 ± 0.0002 s⁻¹. On human JMJD5 (absence of 2OG, JMJD5 0.15 μM, 2OG derivative 400 μM, Fe(II) 20 μM, RPS6_128–148 2.0 μM), the “JMJD5 (%): RPS6_128–148 hydroxylation with the compound as cosubstrate” value is ~ 40%. Also, on human JMJD5 (after 50 min, 10 μM cosubstrate, 0.15 μM JMJD5, 10 μM Fe(II), 2.0 μM RPS6_128–148), the “JMJD5-catalyzed RPS6_128–148 hydroxylation, time course” value is on record as about 50%. In addition, the K m in the experiment on PHD2 (biotin-[…] substrate) is 0.35 ± 0.03 µM; with KDM4C it was 2.6 ± 0.1 µM; in the experiment with JMJD5, about 9.5 µM; with human FIH (HIF-1α788–822 substrate), 0.8 ± 0.1 µM; with human AspH, 0.60 ± 0.09 µM. Besides, the k cat in the experiment with KDM4C is 0.075 ± 0.001 s⁻¹; in the experiment with human FIH (HIF-1α788–822 substrate), 0.04 ± 0.01 s⁻¹. The “FIH (%): substrate hydroxylation with the compound as cosubstrate” value in the experiment with human FIH (absence of 2OG, 2OG derivative 330 μM, Fe(II) 50 μM, HIF-1α788–822 5.0 μM) is ~ 50%.
As to “ammonium iron(II) sulfate hexahydrate [Fe(II)]”, the v app max at human JMJD5 (setting [1]) is 0.75 ± 0.03 nM/s; on human JMJD5 (0.15 μM JMJD5, absence of LAA), 0.73 ± 0.05 nM/s. Moreover, the k app cat on human JMJD5 (setting [2]) is 0.005 ± 0.0002 s⁻¹; on human JMJD5 (0.15 μM JMJD5, absence of LAA) it was 0.0049 ± 0.0004 s⁻¹. Also, the K app m on human JMJD5 (0.15 μM JMJD5, absence of LAA) was determined as 0.46 ± 0.11 µM. The K m with PHD2 (biotin-DLEMLAPYIPMDDDFQ substrate) is 0.89 ± 0.07 µM; in the experiment on JMJD5 it was about 2.7 µM; in the experiment with human AspH, 1.42 ± 0.16 µM. Moreover, in the experiment with human AspH, the k cat is 0.19 ± 0.03 s⁻¹.

Source of the values: publication PMC10246557, “Kinetic and inhibition studies on human Jumonji-C (JmjC) domain-containing protein 5” (RSC Chemical Biology, 2023).
